Results on 84 compounds are retold here after PubChem BioAssay AID1959 (Broad Institute, 2009).

Activity calls are given as the source filed them.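 The calls were made as follows: active = growth-inhibition EC50 no more than tenfold above the top tested dose; inconclusive = flat fit between 30% and 70% inhibition, or unreliable fit; inactive = EC50 more than tenfold above the top tested dose.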

The test system of the experiment is E. coli NEB5alpha growth, BacTiter-Glo luminescence, 4 h. The experiment can be described thus: Escherichia coli growth inhibition, dose response, counter-screen for MEX-5/POS-1 RNA-binding inhibitor project, luminescence, NEB5alpha (AID 1959).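 Also: pUC19-transformed ampicillin-resistant cells grown in LB with ampicillin.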 Background: A counterscreen serves to expose hits that act by an unwanted route or on another target.
With `CN1C(=O)/C(=C\c2ccc(N(C)C)cc2)OC1=S`, the EC50 (commonly the concentration that produces a half-maximal response) was > 11 µM (inactive).
The figure for `Cc1[nH]c2ccccc2c1/C=N/NC(=S)NC(C)C` is > 11 µM (inactive); for `Cn1nc(-c2ccc(Cl)cc2)nc2c(=O)n(C)c(=O)nc1-2` it is > 11 µM (inactive); for `CN(C)CCCN1C(=O)c2cccc3c(Br)ccc(c23)C1=O` it is > 11 µM (inactive).
The figure for `O=Cc1c(-c2ccccc2)nc2ccccn12` is > 11 µM (inactive); for `CN(C)CCCN=Cc1c(O)n(CCc2ccc(F)cc2)c(=O)[nH]c1=O` it is > 11 µM (inactive); for `CN(C)c1ccc(O)c2c1CC1CC3C(N(C)C)C(=O)C(C(N)=O)=C(O)[C@@]3(O)C(=O)C1=C2O` (some centres undefined) it is 6.49 µM.
The result for `O=C(Cc1ccccc1)Nc1ccc(N2CCOCC2)cc1N1CCOCC1` reads > 11 µM (inactive); that for `CN1CCN(C2=C(Cl)C(=O)C(c3cnc(N4CCCCC4)s3)=C(Cl)C2=O)CC1`, > 11 µM (inactive).
Consider `N#Cc1cc(NC(=O)c2ccc(F)cc2)c(=O)n2c1[nH]c1ccccc12`, for which the EC50 is > 11 µM (inactive).
The figure for `NC(=O)Cn1cc(C=C2C(=O)NC(=O)NC2=O)c2ccccc21` is > 11 µM (inactive); for `CCCCN(C)C(=O)c1cccc(OC2CCN(CC(C)(C)C)CC2)c1` it is > 11 µM (inactive); for `O=C(N/N=C/c1cccn1-c1cccc(C(=O)O)c1)Nc1ccccc1` it is > 11 µM (inactive).
The result for `CCN(CC)c1ccc(N=Cc2c(O)n(-c3ccc(OC)cc3)c(=O)[nH]c2=O)cc1` reads > 11 µM (inactive).
The figure for `CN1C(=O)/C(=C\c2ccc(N3CCCCC3)o2)C(=O)NC1=S` is > 11 µM (inactive).
Regarding `COc1ccc(C(=O)N=c2c(C#N)cc3c(=O)n4cccc(C)c4nc3n2Cc2ccco2)cc1`, the EC50 is > 11 µM (inactive).
The figure for `O=C1C(Cl)=C(Nc2ccccc2O)C(=O)N1c1ccccc1` is > 11 µM (inactive).
The result for `Cc1cc(/C=C2/C(=O)NC(=O)N(c3ccc(Br)cc3)C2=O)c(C)n1C` reads > 11 µM (inactive); that for `CCCNc1c(F)c(F)c2c(C)c3ccccc3nc2c1F`, > 11 µM (inactive); that for `O=C1C=CC(=O)C(C2=C3C(=O)N(CCc4ccccc4)CC(=O)N3CCC2)=C1`, > 11 µM (inactive).
The figure for `COc1cc2c(cc1OC)C(c1ccc(-c3ccc(Cl)cc3Cl)o1)=NCC2` is > 11 µM (inactive); for `Nc1c(O)ccc2c1C(=O)c1ccccc1C2=O` it is > 11 µM (inactive); for `CCCCC1(C)OC(=O)C(=Cc2ccc(N(CC)CC)cc2)C(=O)O1` (centres undefined) it is > 11 µM (inactive).
Turning to `CN1CCc2cc(O)cc3c2[C@H]1Cc1ccc(O)c(O)c1-3`, the EC50 is > 11 µM (inactive).
Consider `CCOC(=O)Cn1c2ccc(OC)cc2c2nc3ccccc3nc21`, for which the EC50 was > 11 µM (inactive).
The figure for `CCN(CC)C(=O)c1sc2nc(-c3cccs3)cc(-c3cccs3)c2c1N` is > 11 µM (inactive).
The result for `CCOC(=O)C1=C(C)OC(N)=C(C#N)C1c1ccc(O)c(OC)c1` (centres undefined) reads > 11 µM (inactive); that for `COCCNC(=O)CCC(=O)NNc1nc2ccccc2c2nc(C)nn12`, > 11 µM (inactive); that for `Cc1cc(C)c2c(c1)C1C=CCC1C(c1ccc(S(=O)(=O)N3CCOCC3)cc1)N2` (centres undefined), > 11 µM (inactive).
The figure for `Cc1ccc(Oc2nc(-c3ccccn3)nc3ccccc23)cc1` is > 11 µM (inactive).
As for `COCCNC(=O)C1Nc2ccc(C(F)(F)F)cc2C2C=CCC12` (centres undefined), the EC50 was > 11 µM (inactive).
The figure for `C1=C(c2ccccc2)Nc2nnnn2C1c1cccs1` (centres undefined) is > 11 µM (inactive); for `O=[N+]([O-])c1cc(-c2ccc(/C=N/n3cnnc3)o2)ccc1Cl` it is > 11 µM (inactive); for `CCCn1cc2c3c(cccc31)C1CC(C)CN(C)C1C2` (centres undefined) it is > 11 µM (inactive).
The result for `COc1cc(C2C(C#N)=C(N)OC3=C2C(=O)CCC3)cc(OC)c1OC(=O)N1CCOCC1` (centres undefined) reads > 11 µM (inactive).
The result for `O=C(O)COc1ccc(/C=C/c2nc(-c3ccccc3O)n[nH]2)cc1` reads > 11 µM (inactive); that for `CCN(CC)c1ccc(N=Cc2c(O)n(Cc3ccccc3)c(=O)[nH]c2=O)cc1`, > 11 µM (inactive); that for `CN(C)c1ccc(N=Cc2nc(-c3ccccc3)oc2O)cc1`, > 11 µM (inactive).
Consider `O=C(OCC(=O)c1ccco1)c1ccc2ncsc2c1`, for which the EC50 is > 11 µM (inactive).
The figure for `O=[N+]([O-])c1cc(-c2ccc([As](=O)(O)O)cc2)ccc1[As](=O)(O)O` is > 11 µM (inactive).
Turning to `CC(C)OCCCn1c(=NC(=O)c2cccs2)c(C#N)cc2c(=O)n3ccccc3nc21`, the EC50 is > 11 µM (inactive).
The figure for `Cc1ccc(/C=C2\C(=O)NC(=S)N(c3ccc(F)cc3)C2=O)o1` is > 11 µM (inactive); for `CN1C(=O)c2ccccc2NC(=O)[C@]12O[C@@H]2c1cccc(O)c1` it is > 11 µM (inactive); for `COc1ccc(N/C=C\C(=O)c2ccc(C)cc2)cc1OC` it is > 11 µM (inactive).
The result for `NS(=O)(=O)c1ccc(NC(=O)COC(=O)c2cn(-c3ccccc3)nc2-c2ccc(F)cc2)cc1` reads > 11 µM (inactive).
The figure for `O=C1CCCC2=C1Sc1ccc(Cl)cc1N2` is > 11 µM (inactive); for `O=C(NNC(=O)c1cc(Cl)ccc1[N+](=O)[O-])c1csc(N2CCOCC2)n1` it is > 11 µM (inactive).
On to `COC(=O)CCC(=O)OC1(C)C(=O)C=C2C=C(C3CC3)N(c3ccc(CO)cc3)C=C2C1=O` (centres undefined), for which the EC50 is > 11 µM (inactive).
The result for `CCOc1c(C=C(C#N)C#N)c2ccccc2n1CC` reads > 11 µM (inactive); that for `CN(C)c1ccc(-c2nnc(-c3ccc(S(=O)(=O)C(F)F)cc3)o2)cc1`, > 11 µM (inactive).
The figure for `CCN(CC)C(=O)Cn1cc(C(=O)C(=O)N2CCc3ccccc32)c2ccccc21` is > 11 µM (inactive); for `O=c1[nH]c2ccc([N+](=O)[O-])cc2nc1/C=C(\O)c1ccccc1` it is > 11 µM (inactive); for `CN1CCN(/C=N/C2=C(C#N)C(c3ccccc3)C3=C(CC(C)(C)CC3=O)O2)CC1` (centres undefined) it is > 11 µM (inactive).
The result for `Cc1cccc(-n2c(C)cc(C=C3C(=O)c4ccccc4C3=O)c2C)c1` reads > 11 µM (inactive); that for `Cc1ccc(/C=C2\Oc3c(ccc(O)c3CN3CCN(CCO)CC3)C2=O)cc1`, > 11 µM (inactive); that for `Cc1ccc(-c2nc(C=Nc3ccc(O)cc3)c(O)o2)cc1`, > 11 µM (inactive).
Turning to `N#CC1=C(N)C(C#N)(C#N)C(c2cccnc2)C2CCCC=C12` (centres undefined), the EC50 was > 11 µM (inactive).
The result for `O=c1[nH]c(=O)n(-c2ccc(F)cc2)c(O)c1/C=C1\C=Nc2ccccc21` reads > 11 µM (inactive); that for `COc1cccc(C2C(C#N)=C(N)OC3=C2C(=O)CC(c2ccco2)C3)c1OCc1ccc(F)cc1` (centres undefined), > 11 µM (inactive).
As for `Cc1ccccc1Nc1nc(Cl)c(C=O)s1`, the EC50 is > 11 µM (inactive).
The figure for `Cc1cc(C)c2c(c1)NC(c1cc3c(cc1Br)OCO3)C1CC=CC21` (centres undefined) is > 11 µM (inactive).
The result for `O=C(O)CCC(=O)N1N=C(c2cccs2)CC1c1cn(-c2ccccc2)nc1-c1ccccc1` (centres undefined) reads > 11 µM (inactive); that for `O=C(N/N=C/c1c(O)ccc2ccccc12)Nc1ccccc1`, > 11 µM (inactive); that for `CCOc1cc(C2C(C#N)=C(N)OC(C)=C2C(C)=O)cc(Br)c1O` (centres undefined), > 11 µM (inactive).
The figure for `Cc1n[nH]c(C)c1N1C(=O)c2cccc3c(N4CCCCCC4)ccc(c23)C1=O` is > 11 µM (inactive); for `COc1ccc(C2C(C#N)=C(N)OC3=C2C(=O)CCC3)c(OC)c1OC` (centres undefined) it is > 11 µM (inactive).
As to `CC(C)Cc1nnc(NC(=O)CCC(=O)N2CC(C)CC(C)C2)s1` (centres undefined), the EC50 was > 11 µM (inactive).
The figure for `O=C(NCc1ccccn1)C1Nc2ccc(C(F)(F)F)cc2C2C=CCC12` (centres undefined) is > 11 µM (inactive); for `Cc1ccc(N2C(=O)NC(=O)/C(=C/c3cnn(-c4ccc(C)cc4)c3)C2=O)cc1` it is > 11 µM (inactive); for `FC(F)(F)c1cc(C(F)(F)F)n2nc(-c3sccc3-n3cccc3)cc2n1` it is > 11 µM (inactive).
Turning to `O=C(N/N=C\c1c(O)ccc2ccccc12)c1cncc(Br)c1`, the EC50 is > 11 µM (inactive).
The result for `O=C(Cn1cncn1)N/N=C/c1c2ccccc2cc2ccccc12` reads > 11 µM (inactive).
On to `CN1CCc2c(sc(NC(=O)c3ccc4ccccc4c3)c2C(N)=O)C1`, for which the EC50 is > 11 µM (inactive).
The result for `CCN(CC)c1ccc2cc(C#N)c(=O)oc2c1` reads > 11 µM (inactive); that for `Cc1ccc(NC(=O)CN2C(=O)S/C(=C\c3cccn3-c3cccc(C(=O)O)c3)C2=O)cc1C`, > 11 µM (inactive).
In the case of `C=CCN1C=C2C(=O)C(C)(OC(=O)CCC(=O)OC)C(=O)C(Br)=C2C=C1c1ccc(OC)cc1` (centres undefined), the EC50 is > 11 µM (inactive).
For the compound `CC(C)(O)[C@H]1O[C@H]2CC[C@@]3(C)[C@@](O)(CC[C@H]4Cc5c([nH]c6ccccc56)[C@@]43C)C2=CC1=O`, the EC50 was > 11 µM (inactive).
The result for `O=C(O)c1ccc2nc(-c3ccco3)c(-c3ccco3)nc2c1` reads > 11 µM (inactive).
The result for `COc1cc(OC)c(OC)cc1/C=C1\Oc2cc(OS(C)(=O)=O)ccc2C1=O` reads > 11 µM (inactive); that for `O=C(O)C1OC(Oc2cc3oc(-c4ccccc4)cc(=O)c3c(O)c2O)C(O)C(O)C1O` (centres undefined), > 11 µM (inactive); that for `CC(=O)N(C)c1ccc(N=Nc2c(C)[nH]n(C(N)=S)c2=O)cc1`, > 11 µM (inactive).
The figure for `Cc1cc(/C=c2\sc3nc4ccccc4n3c2=O)c(C)n1-c1ccc(C(=O)O)cc1` is > 11 µM (inactive).
On to `Cc1c(N=Cc2c(O)n(Cc3ccccc3)c(=O)[nH]c2=O)c(=O)n(-c2ccccc2)n1C`, for which the EC50 is > 11 µM (inactive).
The result for `CC(C)(C)OC(=O)NCCCCC1=CC2=CC(=O)C(C)(OC(=O)c3ccco3)C(=O)C2=CO1` (centres undefined) reads > 11 µM (inactive).
